One assay has as its target TNIK (Homo sapiens (Human), UniProt Q9UKE5). As to the kind of experiment: TNIK enzymatic assay (radiometric kinase inhibition). Format: biochemical. The method, then:
The compounds were studied for function as TNIK inhibitors to generate the data of Table 1. […] (specific activity and concentration as required). The reaction is initiated by the addition of the Mg/ATP mix. After incubation for 40 minutes at room temperature, the reaction is stopped by the addition of phosphoric acid to a concentration of 0.5%.

A further assay concerns the target MAP4K4 (h) (Homo sapiens (Human), UniProt O95819). As to the kind of experiment: MAP4K4 in vitro kinase assay (radiometric). Format: biochemical. To be noted: read-out: MAP4K4_IC50. As for the experimental part:
(specific activity and concentration as required). The reaction is initiated by the addition of the Mg/ATP mix. After incubation for 40 minutes at room temperature, the reaction is stopped by the addition of phosphoric acid to a concentration of 0.5%.

[1] abbreviates: TNIK enzymatic assay, Table 1, read-out: IC50.

Read-outs that look alike come from different tables or passages of the source.

Sequence of MAP4K4 (h) (O95819 whole entry): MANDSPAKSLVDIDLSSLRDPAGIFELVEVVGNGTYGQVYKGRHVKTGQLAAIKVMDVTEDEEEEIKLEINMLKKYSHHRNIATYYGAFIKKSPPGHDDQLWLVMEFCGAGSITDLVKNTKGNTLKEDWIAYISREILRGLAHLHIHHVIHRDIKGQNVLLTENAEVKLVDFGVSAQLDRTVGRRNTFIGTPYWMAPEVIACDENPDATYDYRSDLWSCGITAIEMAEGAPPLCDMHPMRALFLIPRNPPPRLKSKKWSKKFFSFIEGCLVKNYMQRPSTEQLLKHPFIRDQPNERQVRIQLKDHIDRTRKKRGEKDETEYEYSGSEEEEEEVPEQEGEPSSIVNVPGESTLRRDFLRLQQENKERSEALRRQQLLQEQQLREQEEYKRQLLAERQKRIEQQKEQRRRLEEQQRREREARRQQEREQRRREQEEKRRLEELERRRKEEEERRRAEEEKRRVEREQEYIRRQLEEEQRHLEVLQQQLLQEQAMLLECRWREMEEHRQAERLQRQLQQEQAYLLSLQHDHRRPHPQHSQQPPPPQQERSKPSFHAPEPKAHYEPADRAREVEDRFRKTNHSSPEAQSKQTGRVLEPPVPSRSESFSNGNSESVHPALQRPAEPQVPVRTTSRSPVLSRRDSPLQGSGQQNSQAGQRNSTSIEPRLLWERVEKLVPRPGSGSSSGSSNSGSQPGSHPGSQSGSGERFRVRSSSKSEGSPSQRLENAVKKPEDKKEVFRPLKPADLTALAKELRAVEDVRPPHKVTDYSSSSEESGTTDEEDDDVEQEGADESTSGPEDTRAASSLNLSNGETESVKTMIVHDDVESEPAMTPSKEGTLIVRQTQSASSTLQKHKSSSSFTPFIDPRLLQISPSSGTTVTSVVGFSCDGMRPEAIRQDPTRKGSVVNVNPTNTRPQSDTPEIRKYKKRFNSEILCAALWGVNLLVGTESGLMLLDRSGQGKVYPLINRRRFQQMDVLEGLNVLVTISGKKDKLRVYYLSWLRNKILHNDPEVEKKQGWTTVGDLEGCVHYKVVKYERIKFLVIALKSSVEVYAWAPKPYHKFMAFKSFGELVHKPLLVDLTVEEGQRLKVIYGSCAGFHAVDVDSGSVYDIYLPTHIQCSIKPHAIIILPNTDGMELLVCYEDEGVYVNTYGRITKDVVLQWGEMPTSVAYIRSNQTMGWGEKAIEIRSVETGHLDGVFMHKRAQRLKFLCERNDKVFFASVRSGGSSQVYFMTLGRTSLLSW
Sequence of TNIK (Q9UKE5 whole entry): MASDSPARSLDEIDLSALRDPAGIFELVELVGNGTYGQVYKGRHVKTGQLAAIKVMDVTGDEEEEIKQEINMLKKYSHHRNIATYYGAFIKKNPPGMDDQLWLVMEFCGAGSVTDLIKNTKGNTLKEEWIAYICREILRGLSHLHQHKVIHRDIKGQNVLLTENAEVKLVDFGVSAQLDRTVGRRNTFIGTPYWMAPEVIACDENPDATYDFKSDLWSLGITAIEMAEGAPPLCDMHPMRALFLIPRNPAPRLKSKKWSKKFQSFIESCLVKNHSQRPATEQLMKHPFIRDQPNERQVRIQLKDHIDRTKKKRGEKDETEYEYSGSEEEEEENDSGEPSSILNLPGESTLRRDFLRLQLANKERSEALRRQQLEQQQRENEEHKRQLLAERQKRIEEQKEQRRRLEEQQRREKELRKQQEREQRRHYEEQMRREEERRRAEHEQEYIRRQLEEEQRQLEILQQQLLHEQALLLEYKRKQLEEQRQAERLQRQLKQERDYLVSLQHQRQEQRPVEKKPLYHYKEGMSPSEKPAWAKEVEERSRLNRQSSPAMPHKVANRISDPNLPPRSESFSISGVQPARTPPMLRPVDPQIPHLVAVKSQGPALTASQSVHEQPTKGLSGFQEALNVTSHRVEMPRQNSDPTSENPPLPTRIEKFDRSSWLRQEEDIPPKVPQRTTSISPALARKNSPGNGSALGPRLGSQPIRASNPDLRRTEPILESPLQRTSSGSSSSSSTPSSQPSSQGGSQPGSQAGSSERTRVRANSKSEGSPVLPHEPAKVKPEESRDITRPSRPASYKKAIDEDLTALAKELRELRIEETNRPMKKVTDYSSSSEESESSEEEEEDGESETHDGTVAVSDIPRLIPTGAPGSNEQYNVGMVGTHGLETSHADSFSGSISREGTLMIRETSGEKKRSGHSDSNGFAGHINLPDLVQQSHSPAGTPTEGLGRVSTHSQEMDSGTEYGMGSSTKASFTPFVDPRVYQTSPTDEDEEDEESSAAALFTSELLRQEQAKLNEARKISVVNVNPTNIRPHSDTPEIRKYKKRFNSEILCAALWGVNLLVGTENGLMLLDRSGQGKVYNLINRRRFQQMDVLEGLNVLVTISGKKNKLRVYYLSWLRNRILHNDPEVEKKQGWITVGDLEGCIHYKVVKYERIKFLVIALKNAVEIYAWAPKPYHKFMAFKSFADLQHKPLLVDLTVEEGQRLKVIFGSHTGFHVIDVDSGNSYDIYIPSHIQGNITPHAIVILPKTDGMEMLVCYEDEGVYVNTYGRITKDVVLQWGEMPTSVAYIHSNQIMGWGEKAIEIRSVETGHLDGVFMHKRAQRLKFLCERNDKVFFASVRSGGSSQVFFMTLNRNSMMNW

On to `Cc1cccc(NC(=O)c2ccc(-c3c(-c4ccc(F)cc4)ncn3C3CCCCC3)o2)c1C` [Compound 59, 5-(1-cyclohexyl-4-(4-fluorophenyl)-1H-imidazol-5-yl)-N-(2,3-dimethylphenyl)furan-2-carboxamide], for which the IC50 at TNIK (setting [1]) is 562 nM; on TNIK (read-out: TNIK_IC50) it was 562 nM; at MAP4K4 (h) it was greater than 1000 nM.

Take `Cc1ccc(-c2ncn(C3CCCCC3)c2-c2ccc(C(=O)Nc3ccccc3F)o2)cc1` [Compound 7, 5-(1-cyclohexyl-4-(p-tolyl)-1H-imidazol-5-yl)-N-(2-fluorophenyl)furan-2-carboxamide]: the IC50 on TNIK (setting [1]) was 1510 nM; at TNIK (read-out: TNIK_IC50), 1510 nM; at MAP4K4 (h), greater than 1000 nM.

Regarding `COc1ccc(NC(=O)c2ccc(-c3c(-c4ccc(C)cc4)ncn3C3CCCCC3)o2)cc1` [Compound 5, 5-(1-cyclohexyl-4-(p-tolyl)-1H-imidazol-5-yl)-N-(4-methoxyphenyl)furan-2-carboxamide], the IC50 at TNIK (setting [1]) is 2410 nM; at TNIK (read-out: TNIK_IC50), 2410 nM; at MAP4K4 (h), greater than 1000 nM.

Turning to `COc1cccc(NC(=O)c2ccc(-c3c(-c4ccc(F)cc4)ncn3C3CCCC3)o2)c1` [Compound 12, 5-(1-cyclopentyl-4-(4-fluorophenyl)-1H-imidazol-5-yl)-N-(3-methoxyphenyl)furan-2-carboxamide], the IC50 was determined as 101 nM on TNIK (setting [1]), 101 nM on TNIK (read-out: TNIK_IC50) and 141 nM at MAP4K4 (h).

For `Cc1ccc(NC(=O)c2ccc(-c3c(-c4ccc(F)cc4)ncn3C3CCCC3)o2)cc1` [Compound 47, 5-(1-cyclopentyl-4-(4-fluorophenyl)-1H-imidazol-5-yl)-N-(p-tolyl)furan-2-carboxamide], the IC50 on TNIK (setting [1]) was less than 10 nM; at TNIK (read-out: TNIK_IC50), 43.2 nM; on MAP4K4 (h), 51.6 nM.

Take `Cc1cc(Cl)ccc1NC(=O)c1ccc(-c2c(-c3ccc(F)cc3)ncn2C2CCCC2)o1` [Compound 16, N-(4-chloro-2-methylphenyl)-5-(1-cyclopentyl-4-(4-fluorophenyl)-1H-imidazol-5-yl)furan-2-carboxamide]: the IC50 on TNIK (setting [1]) amounted to 38 nM; at TNIK (read-out: TNIK_IC50), 38 nM; at MAP4K4 (h) it was 101 nM.

Consider `COc1cc(NC(=O)c2ccc(-c3c(-c4ccc(C)cc4)ncn3C3CCCCC3)o2)cc(OC)c1` [Compound 6, 5-(1-cyclohexyl-4-(p-tolyl)-1H-imidazol-5-yl)-N-(3,5-dimethoxyphenyl)furan-2-carboxamide], for which the IC50 is 9730 nM on TNIK (setting [1]), 9730 nM at TNIK (read-out: TNIK_IC50) and greater than 1000 nM on MAP4K4 (h).

In the case of `Cc1cccc(C)c1NC(=O)c1ccc(-c2c(-c3ccc(F)cc3)ncn2C2CCCCC2)o1` [Compound 60, 5-(1-cyclohexyl-4-(4-fluorophenyl)-1H-imidazol-5-yl)-N-(2,6-dimethylphenyl)furan-2-carboxamide], the figures for the IC50 on TNIK (setting [1]), at TNIK (read-out: TNIK_IC50) and on MAP4K4 (h) were 874 nM, 874 nM and greater than 1000 nM, respectively.

Consider `CCOC(=O)c1cccc(NC(=O)c2ccc(-c3c(-c4ccc(F)cc4)ncn3C3CCCC3)o2)c1` [Compound 22, ethyl 3-(5-(1-cyclopentyl-4-(4-fluorophenyl)-1H-imidazol-5-yl)furan-2-carboxamido)benzoate], for which the IC50 on TNIK (setting [1]) was 483 nM; at TNIK (read-out: TNIK_IC50), 483 nM; at MAP4K4 (h) it was greater than 1000 nM.

Turning to `Cc1ccc(NC(=O)c2ccc(-c3c(-c4ccc(F)cc4)ncn3C3CCCCC3)o2)cc1C` [Compound 69, 5-(1-cyclohexyl-4-(4-fluorophenyl)-1H-imidazol-5-yl)-N-(3,4-dimethylphenyl)furan-2-carboxamide], the IC50 at TNIK (setting [1]) came to 90 nM; at TNIK (read-out: TNIK_IC50) it was 90 nM; on MAP4K4 (h) it was 288 nM.

Consider `O=C(Nc1cccc(F)c1)c1ccc(-c2c(-c3ccc(F)cc3)ncn2C2CCCC2)o1` [Compound 25, 5-(1-cyclopentyl-4-(4-fluorophenyl)-1H-imidazol-5-yl)-N-(3-fluorophenyl)furan-2-carboxamide], for which the IC50 turned out to be 59 nM at TNIK (setting [1]), 59 nM at TNIK (read-out: TNIK_IC50) and 83.4 nM on MAP4K4 (h).

On to `O=C(Nc1ccc(F)c(F)c1)c1ccc(-c2c(-c3ccc(F)cc3)ncn2C2CCCCC2)o1` [Compound 75, 5-(1-cyclohexyl-4-(4-fluorophenyl)-1H-imidazol-5-yl)-N-(3,4-difluorophenyl)furan-2-carboxamide], for which the IC50 on TNIK (setting [1]) is 191 nM; at TNIK (read-out: TNIK_IC50), 191 nM; at MAP4K4 (h), 431 nM.

As to `CCc1cccc(NC(=O)c2ccc(-c3c(-c4ccc(F)cc4)ncn3C3CCCCC3)o2)c1` [Compound 74, 5-(1-cyclohexyl-4-(4-fluorophenyl)-1H-imidazol-5-yl)-N-(3-ethylphenyl)furan-2-carboxamide], the IC50 on TNIK (setting [1]) was determined as 326 nM; on TNIK (read-out: TNIK_IC50) it was 326 nM; on MAP4K4 (h), 300 nM.

Consider `COc1ccc(NC(=O)c2ccc(-c3c(-c4ccc(F)cc4)ncn3C3CCCCC3)o2)cc1OC` [Compound 52, 5-(1-cyclohexyl-4-(4-fluorophenyl)-1H-imidazol-5-yl)-N-(3,4-dimethoxyphenyl)furan-2-carboxamide], for which the IC50 at TNIK (setting [1]) is 60 nM; at TNIK (read-out: TNIK_IC50), 60 nM; on MAP4K4 (h), 104 nM.

For the molecule `COc1cnccc1NC(=O)c1ccc(-c2c(-c3ccc(F)cc3)ncn2C2CCOC2)o1` (stereo not shown) [Compound A-38, 5-(4-(4-fluorophenyl)-1-(tetrahydrofuran-3-yl)-1H-imidazol-5-yl)-N-(3-methoxypyridin-4-yl)furan-2-carboxamide], the IC50 on TNIK (read-out: TNIK_IC50) was 4.21 nM; at MAP4K4 (h), less than 10 nM.

Turning to `Cc1cccc(NC(=O)c2ccc(-c3c(-c4ccc(F)cc4)ncn3C3CCCC3)o2)c1` [Compound 48, 5-(1-cyclopentyl-4-(4-fluorophenyl)-1H-imidazol-5-yl)-N-(m-tolyl)furan-2-carboxamide], the IC50 on TNIK (setting [1]) was 40 nM; on TNIK (read-out: TNIK_IC50), 40 nM; on MAP4K4 (h), 163 nM.

Turning to `COc1cc(NC(=O)c2ccc(-c3c(-c4ccc(F)cc4)ncn3C3CCCCC3)o2)cc(OC)c1` [Compound 58, 5-(1-cyclohexyl-4-(4-fluorophenyl)-1H-imidazol-5-yl)-N-(3,5-dimethoxyphenyl)furan-2-carboxamide], the IC50 is 275 nM at TNIK (setting [1]), 275 nM at TNIK (read-out: TNIK_IC50) and 581 nM on MAP4K4 (h).

Take `O=C(Nc1ccc(-c2c(-c3ccc(F)cc3)ncn2C2CCCC2)o1)c1ccccc1F` [Compound 95, N-(5-(1-cyclopentyl-4-(4-fluorophenyl)-1H-imidazol-5-yl)furan-2-yl)-2-fluorobenzamide]: the results for the IC50 on TNIK (read-out: TNIK_IC50) and on MAP4K4 (h) were 480 nM and 547 nM, respectively.

`Cc1cccc(C)c1NC(=O)c1ccc(-c2c(-c3ccc(F)cc3)ncn2C2CCCC2)o1` [Compound 21, 5-(1-cyclopentyl-4-(4-fluorophenyl)-1H-imidazol-5-yl)-N-(2,6-dimethylphenyl)furan-2-carboxamide]: the IC50 at TNIK (setting [1]) was 214 nM; at TNIK (read-out: TNIK_IC50) it was 214 nM; at MAP4K4 (h), greater than 1000 nM.

As to `COc1ccc(NC(=O)c2ccc(-c3c(-c4ccc(F)cc4)ncn3C3CCCC3)o2)cc1OC` [Compound 11, 5-(1-cyclopentyl-4-(4-fluorophenyl)-1H-imidazol-5-yl)-N-(3,4-dimethoxyphenyl)furan-2-carboxamide], the results for the IC50 at TNIK (setting [1]), on TNIK (read-out: TNIK_IC50) and on MAP4K4 (h) were 42 nM, 42 nM and 93.2 nM, respectively.

Values taken from patent US11739078B2, “Methods of inhibiting kinases” (INSILICO MEDICINE IP LIMITED, priority 2019, dated 2023).
